According to patent publication EP0115820A2, “Cephalosporin derivatives and process for their preparation” (Kaken Pharmaceutical Co., Ltd., priority 1983, dated 1984):
Values after ≈ are worked out from the molar mass of the structure shown. Where two headings read alike, the source gives them in different places.

Columns and labels:
Experiment in all cases: Minimum inhibitory concentration (MIC)
Type in all cases: cell-based
[1] = test system: Klebsiella pneumoniae No. 42
Text: (§1) The cephalosporin derivatives of the present invention are novel substances, and the antimicrobial activities of their sodium salts are shown by the minimum inhibitory concentrations (MIC, µg/ml) in Table 1, as compared with a typical known cephalosporin compound.

[2] = test system: Staphylococcus aureus 209 P JC-1
Text: as §1

[3] = test system: Escherichia coli NIHJ JC-2
Text: as §1

Proteus vulgaris GN-76 = test system: Proteus vulgaris GN-76
Text: as §1

[4] = test system: Pseudomonas aeruginosa Y-1
Text: as §1

[5] = test system: Serratia marcescens No. 16-2
Text: as §1

[6] = test system: Pseudomonas aeruginosa K-13
Text: as §1

[7] = test system: Pseudomonas aeruginosa E-2
Text: as §1

[8] = Klebsiella pneumoniae No. 42, bacterial suspension 10^6 cells/ml, sodium salts tested, read-out: Minimum inhibitory concentration
[9] = 209PJC1, Staphylococcus aureus 209 P JC-1, bacterial suspension 10^6 cells/ml, sodium salts tested, read-out: Minimum inhibitory concentration
[10] = NIHJJC2, Escherichia coli NIHJ JC-2, bacterial suspension 10^6 cells/ml, sodium salts tested, read-out: Minimum inhibitory concentration
[11] = GN76, Proteus vulgaris GN-76, bacterial suspension 10^6 cells/ml, sodium salts tested, read-out: Minimum inhibitory concentration
[12] = Y1, Pseudomonas aeruginosa Y-1, bacterial suspension 10^6 cells/ml, sodium salts tested, read-out: Minimum inhibitory concentration
[13] = NO.162, Serratia marcescens No. 16-2, bacterial suspension 10^6 cells/ml, sodium salts tested, read-out: Minimum inhibitory concentration
[14] = K13, Pseudomonas aeruginosa K-13, bacterial suspension 10^6 cells/ml, sodium salts tested, read-out: Minimum inhibitory concentration
[15] = E2, Pseudomonas aeruginosa E-2, bacterial suspension 10^6 cells/ml, sodium salts tested, read-out: Minimum inhibitory concentration

SMILES	MIC [1, 8] [µg/mL]	MIC [2, 9] [µg/mL]	MIC [3, 10] [µg/mL]	MIC (Proteus vulgaris GN-76; [11]) [µg/mL]	MIC [4, 12] [µg/mL]	MIC [5, 13] [µg/mL]	MIC [6, 14] [µg/mL]	MIC [7, 15] [µg/mL]	MIC ([1]; Klebsiella pneumoniae, NO.42, read-out: Minimum inhibitory concentration) [µg/mL]	MIC ([2]; Staphylococcus aureus, 209PJC1, read-out: Minimum inhibitory concentration) [µg/mL]	MIC ([3]; Escherichia coli, NIHJJC2, read-out: Minimum inhibitory concentration) [µg/mL]	MIC (Proteus vulgaris GN-76; Proteus vulgaris, GN76, read-out: Minimum inhibitory concentration) [µg/mL]	MIC ([4]; Pseudomonas aeruginosa, Y1, read-out: Minimum inhibitory concentration) [µg/mL]	MIC ([5]; Serratia marcescens, NO.162, read-out: Minimum inhibitory concentration) [µg/mL]	MIC ([6]; Pseudomonas aeruginosa, K13, read-out: Minimum inhibitory concentration) [µg/mL]	MIC ([7]; Pseudomonas aeruginosa, E2, read-out: Minimum inhibitory concentration) [µg/mL]
CO[C@@]1(NC(=O)C(NC(=O)c2ccc(O)c(O)c2)c2csc(N)n2)C(=O)N2C(C(=O)O)=C(CSc3nnnn3C)CS[C@@H]21 (mixture of isomers) [Example 12, 7α-methoxy-7β-[DL-2-(3,4-dihydroxy-benzoylamino)-2-(2-aminothiazol-4-yl)acetamido]-3-(l-methyl-lH-tetrazol-5-yl-thiomethyl)-3-cephem-4-carboxylic acid]	0.1	1.56	6.25	1.56	0.2	0.78	0.39	0.2								
CO[C@@]1(NC(=O)C(NC(=O)c2ccc(OC(C)=O)c(OC(C)=O)c2)c2csc(N)n2)C(=O)N2C(C(=O)O)=C(COC(C)=O)CS[C@@H]21 (mixture of isomers) [Example 6, 7α-methoxy-7β-[DL-2-(3,4-diacetoxy-benzoylamino)-2-(2-aminothiazol-4-yl)acetamido]-cephalosporic acid]	0.39	1.56	3.12	12.5	0.78	6.25	1.56	0.78								
Cn1nnnc1SCC1=C(C(=O)O)N2C(=O)[C@@H](NC(=O)C(NC(=O)c3ccc(O)c(O)c3)c3csc(N)n3)[C@H]2SC1 (mixture of isomers) [Example 2, 7β-[DL-2-(3,4-dihydroxybenzoylamino)-2-(2-aminothiazol-4-yl)acetamido]-3-(1-methyl-1H-tetrazol-5-yl-thiomethyl)-3-cephem-4-carboxylic acid]	0.2	0.39	0.78	6.25	0.2	100	0.1	0.39								
CC(=O)Oc1cc(C(=O)NC(C(=O)N[C@@H]2C(=O)N3C(C(=O)O)=C(CSc4nnnn4C)CS[C@H]23)c2csc(N)n2)cc(OC(C)=O)c1OC(C)=O (mixture of isomers) [Example 3, 7β-[DL-2-(3,4,5-triacetoxybenzoylamino)-2-(2-aminothiazol-4-yl)acetamidol-3-(l-methyl-lH-tetrazol-5-yl-thiomethyl)-3-cephem-4-carboxylic acid]	< 0.05	0.78	0.78	0.39	0.1	0.05	0.2	0.2								
CC(=O)OCC1=C(C(=O)O)N2C(=O)[C@@H](NC(=O)C(NC(=O)c3cccc(OC(C)=O)c3)c3csc(N)n3)[C@H]2SC1 (mixture of isomers) [Example 16, 7β-[DL-2-(3-acetoxybenzoylamino)-2-(2-aminothiazol-4-yl)acetamidolcephalosporic acid]	3.12	0.39	1.56	6.25	> 200	> 200	200	200								
CC(=O)OCC1=C(C(=O)O)N2C(=O)[C@@H](NC(=O)C(NC(=O)c3ccc(OC(C)=O)cc3)c3csc(N)n3)[C@H]2SC1 (mixture of isomers) [Example 17, 7β-[DL-2-(4-acetoxybenzoylamino)-2-(2-aminothiazol-4-yl)acetamido]cephalosporic acid]	3.12	0.2	0.78	6.25	200	> 200	100	100								
CO[C@@]1(NC(=O)CSCC#N)C(=O)N2C(C(=O)O)=C(CSc3nnnn3C)CS[C@@H]21 [Cefmetazole, reference compound]									1.56 (≈ 3.31 µM)	0.39 (≈ 0.827 µM)	0.78 (≈ 1.65 µM)	3.12 (≈ 6.62 µM)	3200 (≈ 6790 µM)	> 50	3200 (≈ 6790 µM)	3200 (≈ 6790 µM)
CC(=O)OCC1=C(C(=O)O)N2C(=O)[C@@H](NC(=O)C(NC(=O)c3ccccc3OC(C)=O)c3csc(N)n3)[C@H]2SC1 (mixture of isomers) [Example 15, 7β-[DL-2-(2-acetoxybenzoylamino)-2-(2-aminothiazol-4-yl)acetamido]cephalosporic acid]	6.25	0.39	1.56	6.25	50	200	25	25								
CO[C@@]1(NC(=O)C(NC(=O)c2cc(OC(C)=O)c(OC(C)=O)c(OC(C)=O)c2)c2csc(N)n2)C(=O)N2C(C(=O)O)=C(COC(C)=O)CS[C@@H]21 (mixture of isomers) [Example 7, 7α-methoxy-7β-[DL-2-(3,4,5-triacetoxy-benzoylamino)-2-(2-aminothiazol-4-yl)acetamido]-cephalosporic acid]	1.56	6.25	12.5	12.5	0.78	50	1.56	0.78								
CC(=O)OCC1=C(C(=O)O)N2C(=O)[C@@H](NC(=O)C(NC(=O)c3cc(OC(C)=O)c(OC(C)=O)c(OC(C)=O)c3)c3csc(N)n3)[C@H]2SC1 (mixture of isomers) [Example 18, 7β-[DL-2-(3,4,5-triacetoxybenzoylamino)-2-(2-aminothiazol-4-yl)acetamido]cephalosporic acid]	0.1	1.56	0.39	0.78	0.78	3.12	0.78	0.2								
